In assay [1] the test system is Propionibacterium acnes (CIP 53117T). As to the kind of experiment: Antimicrobial activity (MIC/MBC, micro-method in liquid medium) against Propionibacterium acnes. Type of assay: cell-based. The note with it: 24 h. On the procedure:
Activity is evaluated on Propionibacterium acnes (CIP 53117T), with an inoculation suspension at 10^8 CFU/mL. The maintenance medium is Columbia agar+5% sheep blood, with incubation for 24 hours at 36±1° C. under anaerobic conditions. The test medium is composed of Mueller Hinton broth+10% foetal calf serum (FCS) and Columbia agar+5% sheep blood, with incubation for 24 h at 36±1° C. under anaerobic conditions. The determination of minimum inhibitory concentrations (MICs) is performed by micro-method in liquid medium. 100 μL of liquid culture medium is deposited in each well of a sterile 96-well microplate. 100 μL of the product to be tested is deposited in the first well of a row. One-half dilutions are then made from wells 1 to 10. Propionibacterium acnes test suspensions are prepared extemporaneously in tryptone salt. 100 μL is deposited in each well of a second microplate, except column 11. All of the first microplate is inoculated, using a Denley multipoint inoculator, from the second microplate. After incubation, MICs are defined as the highest dilution with no visible growth. Columns 11 and 12 serve as negative and positive growth control, respectively. Two references were tested in parallel. The determination of minimum bactericidal concentrations (MBCs) is performed by subculturing MIC microplates on agar medium using the Denley multipoint inoculator. After incubation, MBC is defined as the highest dilution with no visible growth. All tests are performed in duplicate.

In the next assay the test system is S. aureus CIP 4.83. As to the kind of experiment: Antimicrobial activity (MIC/MBC) against Staphylococcus aureus. It is filed as cell-based.
For the next assay, the system named is NFκB. Kind of assay: Inhibitory activity against NFκB in HaCaT keratinocytes stimulated with TNF-alpha. It is filed as cell-based, human. The note with it: 2 μM, TNF-alpha 0.3 ng/mL. An excerpt: The transcription factor NFκB controls the expression of a large number of genes involved in regulation of the inflammatory response. […] Certain pro-inflammatory stimuli such as TNF-alpha and IL-1-beta lead to the activation of NFκB, i.e. its nuclear translocation. Once in the nucleus, NFκB will induce the transcription of pro-inflammatory genes encoding cytokines, chemokines, adhesion molecules, growth factors and inducible enzymes.
The anti-inflammatory activities of the extracts obtained from the suspensions contained in Erlenmeyer flasks E1, E2, E3 and E6 of example 8 were evaluated in vitro on human HaCaT keratinocytes according to the method described by Albanesi et al. The extracts, weighed in dry weight, were taken up in a buffer and introduced into a HaCaT cell culture solution in equivalent final concentrations (ng/mL) for each extract and incubated for 1 hour. NFκB expression is then induced by stimulation with TNF-alpha (0.3 ng/mL).

Where [2] appears, read: Staphylococcus aureus, CIP4, 24 h.
Where [3] appears, read: Propionibacterium acnes, anaerobic.
[4] abbreviates: S. aureus CIP 4.83, 36° C., 24 h.

≈ marks a conversion by molar mass, not a printed value.

A word on the MBC: it is the lowest tested concentration that kills the bacteria rather than only halting them. A lower MBC goes with more potent killing. The MIC is the least concentration at which growth counts as inhibited. Low readings indicate inhibition by little substance, high ones a need for much substance. In assay [1] (Cutibacterium acnes), `CC1=C(O)C(=O)C=C2C1=CC=C1[C@@]2(C)CC[C@@]2(C)C3C[C@@H](C)C(=O)C[C@]3(C)CC[C@]12C` (stereo partly drawn) [Tingenin A, tingenin A] yielded an MBC of 2.34 µg/mL (≈ 5.56 µM) and an MIC of 2.34 µg/mL (≈ 5.56 µM). In the assay with S. aureus CIP 4.83 (setting [2]), this molecule had an MBC of 2.34 µg/mL (≈ 5.56 µM) and an MIC of 1.17 to 2.34 µg/mL (≈ 2.78 to 5.56 µM).

Consider `C[C@@H]1C[C@H]2[C@@H]3CCC4=CC(=O)C=C[C@]4(C)[C@@]3(F)[C@@H](O)C[C@]2(C)[C@@]1(O)C(=O)CO` [Dexamethasone], for which the results for the “% inhibition of NFκB expression with respect to induction of TNF-alpha” value with NFκB and with NFκB (listed as Dex) were “more than 40%” and 42.5%, respectively.

For the molecule `CC1=C(O)C(=O)C=C2C1=CC=C1[C@@]2(C)CC[C@@]2(C)[C@@H]3C[C@@H](C)C(=O)[C@@H](O)[C@]3(C)CC[C@]12C` [Tingenin B, tingenin B], the MBC (in assay [1] (Cutibacterium acnes); in the assay with S. aureus CIP 4.83 (setting [2])) was 1.17 µg/mL (≈ 2.68 µM) throughout. Also, the MIC in assay [1] (Cutibacterium acnes) amounted to 1.17 µg/mL (≈ 2.68 µM); with S. aureus CIP 4.83 (setting [2]) it was 0.59 µg/mL (≈ 1.35 µM).

With `C[S+](C)[O-]` [DMSO], the MBC in assay [1] (setting [3]) was 5 µg/mL (≈ 64 µM); with S. aureus CIP 4.83 (setting [4]), above 5 µg/mL. The MIC is 5 µg/mL (≈ 64 µM) in assay [1] (setting [3]) and above 5 µg/mL with S. aureus CIP 4.83 (setting [4]).

Consider `CC1=C(O)C(=O)C=C2C1=CC=C1[C@@]2(C)CC[C@@]2(C)[C@@H]3C[C@](C)(C(=O)O)CC[C@]3(C)CC[C@]12C` [Celastrol, celastrol], for which the MBC came to 1.17 µg/mL (≈ 2.6 µM) in assay [1] (Cutibacterium acnes) and 0.59 µg/mL (≈ 1.31 µM) against S. aureus CIP 4.83 (setting [2]). Besides, the MIC in assay [1] (Cutibacterium acnes) came out at 0.59 µg/mL (≈ 1.31 µM); with S. aureus CIP 4.83 (setting [2]), 0.29 µg/mL (≈ 0.644 µM).

Source of the values: patent US20190134128A1, “METHOD FOR PRODUCING CELASTROL AND PENTACYCLIC TRITERPENE DERIVATIVES” (PIERRE FABRE DERMO-COSMETIQUE, priority 2016, published 2019).
